Legend:
Test in all cases: Ray2010 Assay 74
[1] = biological target: 5-hydroxytryptamine receptor 1B (Homo sapiens, UniProt P28222)
Description: (§1) Table S2 shows raw Ki data for the current study combined with data collected from the literature for the ten additional compounds.

[2] = biological target: 5-hydroxytryptamine receptor 1E (Homo sapiens, UniProt P28566)
Description: as §1

[3] = biological target: 5-hydroxytryptamine receptor 2A (Homo sapiens, UniProt P28223)
Description: as §1

[4] = biological target: 5-hydroxytryptamine receptor 5A (Homo sapiens, UniProt P47898)
Description: as §1

[5] = biological target: T1, Alpha-1B adrenergic receptor (Homo sapiens, UniProt P35368)
T1 sequence (P35368 whole entry): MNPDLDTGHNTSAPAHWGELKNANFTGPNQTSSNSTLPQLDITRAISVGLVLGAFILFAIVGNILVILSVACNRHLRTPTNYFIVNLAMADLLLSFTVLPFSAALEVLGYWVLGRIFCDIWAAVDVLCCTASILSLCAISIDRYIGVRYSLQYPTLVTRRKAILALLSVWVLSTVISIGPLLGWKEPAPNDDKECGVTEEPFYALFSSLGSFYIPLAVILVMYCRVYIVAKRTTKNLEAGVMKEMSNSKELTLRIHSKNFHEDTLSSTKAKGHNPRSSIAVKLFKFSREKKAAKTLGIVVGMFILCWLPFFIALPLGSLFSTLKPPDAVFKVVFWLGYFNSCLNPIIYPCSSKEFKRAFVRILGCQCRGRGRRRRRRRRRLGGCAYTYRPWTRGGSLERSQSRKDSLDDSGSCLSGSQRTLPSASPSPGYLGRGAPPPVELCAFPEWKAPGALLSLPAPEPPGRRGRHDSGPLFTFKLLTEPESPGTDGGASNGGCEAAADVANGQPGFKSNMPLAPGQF
Description: as §1

D(1A) dopamine receptor = D(1A) dopamine receptor (Homo sapiens, UniProt P21728)
Description: as §1

D(4) dopamine receptor = biological target: T2, D(4) dopamine receptor (Homo sapiens, UniProt P21917)
T2 sequence (P21917 whole entry): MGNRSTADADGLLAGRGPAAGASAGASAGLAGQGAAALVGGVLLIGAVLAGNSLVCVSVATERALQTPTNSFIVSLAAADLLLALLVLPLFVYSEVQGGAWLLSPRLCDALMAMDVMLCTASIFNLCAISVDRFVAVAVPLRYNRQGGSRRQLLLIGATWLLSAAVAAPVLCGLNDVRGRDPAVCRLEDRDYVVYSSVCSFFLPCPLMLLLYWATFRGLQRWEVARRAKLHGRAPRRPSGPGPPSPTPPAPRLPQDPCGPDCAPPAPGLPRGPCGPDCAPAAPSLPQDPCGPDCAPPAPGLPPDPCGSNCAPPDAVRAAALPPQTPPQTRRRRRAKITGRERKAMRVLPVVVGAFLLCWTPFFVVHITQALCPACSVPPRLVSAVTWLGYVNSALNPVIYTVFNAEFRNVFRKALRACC
Description: as §1

Histamine H2 receptor = Histamine H2 receptor (Homo sapiens, UniProt P25021)
Description: as §1

[6] = biological target: T3, Muscarinic acetylcholine receptor M5 (Homo sapiens, UniProt P08912)
T3 sequence (P08912 whole entry): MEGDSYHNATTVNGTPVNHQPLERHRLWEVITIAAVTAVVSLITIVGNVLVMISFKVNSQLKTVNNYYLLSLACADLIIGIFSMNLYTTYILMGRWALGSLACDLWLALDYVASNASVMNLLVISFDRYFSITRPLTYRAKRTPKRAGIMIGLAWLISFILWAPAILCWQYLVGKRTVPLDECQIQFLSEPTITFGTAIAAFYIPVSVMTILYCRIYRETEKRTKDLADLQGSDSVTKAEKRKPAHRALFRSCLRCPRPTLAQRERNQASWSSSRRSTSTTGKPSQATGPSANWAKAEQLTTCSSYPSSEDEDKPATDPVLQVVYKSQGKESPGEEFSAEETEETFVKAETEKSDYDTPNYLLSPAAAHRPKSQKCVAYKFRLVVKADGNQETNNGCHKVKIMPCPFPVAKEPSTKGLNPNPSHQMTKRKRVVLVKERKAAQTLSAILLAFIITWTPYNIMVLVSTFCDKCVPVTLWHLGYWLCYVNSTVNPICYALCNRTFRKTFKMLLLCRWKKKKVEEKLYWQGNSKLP
Description: as §1

[7] = biological target: Sodium-dependent dopamine transporter (Homo sapiens, UniProt Q01959)
Description: as §1

[8] = biological target: Sodium-dependent noradrenaline transporter (Homo sapiens, UniProt P23975)
Description: as §1

[9] = biological target: Sodium-dependent serotonin transporter (Homo sapiens, UniProt P31645)
Description: as §1

Histamine H1 receptor = Histamine H1 receptor (Homo sapiens, UniProt P35367)
Description: as §1

[10] = biological target: T4, Muscarinic acetylcholine receptor M1 (Homo sapiens, UniProt P11229)
T4 sequence (P11229 whole entry): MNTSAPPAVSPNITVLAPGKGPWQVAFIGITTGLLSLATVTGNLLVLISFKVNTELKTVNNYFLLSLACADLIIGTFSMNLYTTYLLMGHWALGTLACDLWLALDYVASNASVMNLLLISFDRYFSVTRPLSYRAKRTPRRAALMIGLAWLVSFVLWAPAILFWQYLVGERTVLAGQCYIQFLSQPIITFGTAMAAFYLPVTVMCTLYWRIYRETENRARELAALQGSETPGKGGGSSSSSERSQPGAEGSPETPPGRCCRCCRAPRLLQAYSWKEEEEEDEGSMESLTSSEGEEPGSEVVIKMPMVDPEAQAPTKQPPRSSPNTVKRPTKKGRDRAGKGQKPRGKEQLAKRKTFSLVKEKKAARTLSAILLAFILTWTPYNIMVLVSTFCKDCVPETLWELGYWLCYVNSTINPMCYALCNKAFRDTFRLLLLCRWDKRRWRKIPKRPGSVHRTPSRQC
Description: as §1

Sequence of D(1A) dopamine receptor (P21728 whole entry): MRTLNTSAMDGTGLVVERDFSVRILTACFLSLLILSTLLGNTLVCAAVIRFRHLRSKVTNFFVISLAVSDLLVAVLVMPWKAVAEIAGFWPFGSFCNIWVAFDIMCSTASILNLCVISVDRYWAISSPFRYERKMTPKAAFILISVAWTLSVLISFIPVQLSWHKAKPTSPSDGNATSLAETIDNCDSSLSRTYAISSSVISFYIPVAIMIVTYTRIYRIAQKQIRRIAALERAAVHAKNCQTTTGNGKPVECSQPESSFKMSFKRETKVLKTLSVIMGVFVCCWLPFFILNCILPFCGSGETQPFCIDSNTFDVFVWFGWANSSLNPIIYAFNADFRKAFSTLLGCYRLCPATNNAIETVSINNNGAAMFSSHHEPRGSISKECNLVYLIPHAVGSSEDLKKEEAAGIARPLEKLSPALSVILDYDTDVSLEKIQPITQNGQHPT
Sequence of Histamine H2 receptor (P25021 whole entry): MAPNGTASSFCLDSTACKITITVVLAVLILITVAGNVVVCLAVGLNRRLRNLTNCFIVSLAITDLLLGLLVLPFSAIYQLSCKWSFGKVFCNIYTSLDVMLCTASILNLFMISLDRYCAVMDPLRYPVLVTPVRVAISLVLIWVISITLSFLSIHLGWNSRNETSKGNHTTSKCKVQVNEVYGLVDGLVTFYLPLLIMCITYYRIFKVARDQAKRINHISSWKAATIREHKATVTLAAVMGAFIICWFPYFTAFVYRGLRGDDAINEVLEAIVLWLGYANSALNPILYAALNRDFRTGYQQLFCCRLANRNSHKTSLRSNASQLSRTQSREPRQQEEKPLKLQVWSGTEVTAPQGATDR
Sequence of Sodium-dependent serotonin transporter (P31645 whole entry): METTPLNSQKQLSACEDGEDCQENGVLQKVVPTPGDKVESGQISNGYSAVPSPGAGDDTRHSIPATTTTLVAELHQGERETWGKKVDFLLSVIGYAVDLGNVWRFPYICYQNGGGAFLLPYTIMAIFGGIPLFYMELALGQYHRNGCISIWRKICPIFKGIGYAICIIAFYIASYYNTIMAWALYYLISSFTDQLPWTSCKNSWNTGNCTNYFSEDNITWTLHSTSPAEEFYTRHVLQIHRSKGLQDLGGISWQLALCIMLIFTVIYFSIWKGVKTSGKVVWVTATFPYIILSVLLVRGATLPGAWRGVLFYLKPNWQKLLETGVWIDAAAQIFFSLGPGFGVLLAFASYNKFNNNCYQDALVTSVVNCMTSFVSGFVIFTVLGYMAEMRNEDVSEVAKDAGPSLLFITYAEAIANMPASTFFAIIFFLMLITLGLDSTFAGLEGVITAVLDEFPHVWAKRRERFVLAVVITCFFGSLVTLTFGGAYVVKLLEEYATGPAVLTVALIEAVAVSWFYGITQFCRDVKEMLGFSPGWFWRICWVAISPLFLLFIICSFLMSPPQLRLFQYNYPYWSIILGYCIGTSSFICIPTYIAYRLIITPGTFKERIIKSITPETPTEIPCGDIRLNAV
Sequence of 5-hydroxytryptamine receptor 2A (P28223 whole entry): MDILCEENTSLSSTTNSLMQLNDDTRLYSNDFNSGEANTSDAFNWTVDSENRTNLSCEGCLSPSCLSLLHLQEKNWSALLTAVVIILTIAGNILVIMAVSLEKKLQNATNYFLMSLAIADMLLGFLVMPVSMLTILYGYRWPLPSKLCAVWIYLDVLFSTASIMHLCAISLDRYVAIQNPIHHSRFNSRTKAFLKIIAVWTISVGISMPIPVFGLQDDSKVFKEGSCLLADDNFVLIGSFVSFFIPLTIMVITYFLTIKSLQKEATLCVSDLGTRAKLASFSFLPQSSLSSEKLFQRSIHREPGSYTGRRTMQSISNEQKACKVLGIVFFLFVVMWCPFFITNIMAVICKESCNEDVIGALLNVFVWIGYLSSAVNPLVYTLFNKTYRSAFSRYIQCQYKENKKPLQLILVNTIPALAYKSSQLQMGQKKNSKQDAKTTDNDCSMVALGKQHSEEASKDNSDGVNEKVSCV
Sequence of 5-hydroxytryptamine receptor 1E (P28566 whole entry): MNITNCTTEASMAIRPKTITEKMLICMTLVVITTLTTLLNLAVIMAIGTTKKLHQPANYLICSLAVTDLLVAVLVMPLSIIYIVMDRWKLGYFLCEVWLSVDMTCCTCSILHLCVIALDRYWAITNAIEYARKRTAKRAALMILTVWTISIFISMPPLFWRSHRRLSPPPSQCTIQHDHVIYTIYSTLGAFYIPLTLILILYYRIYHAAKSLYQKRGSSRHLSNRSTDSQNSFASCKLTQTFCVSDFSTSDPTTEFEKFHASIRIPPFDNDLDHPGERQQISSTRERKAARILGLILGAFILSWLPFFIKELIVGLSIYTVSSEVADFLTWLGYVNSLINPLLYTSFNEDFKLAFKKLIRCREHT
Sequence of Histamine H1 receptor (P35367 whole entry): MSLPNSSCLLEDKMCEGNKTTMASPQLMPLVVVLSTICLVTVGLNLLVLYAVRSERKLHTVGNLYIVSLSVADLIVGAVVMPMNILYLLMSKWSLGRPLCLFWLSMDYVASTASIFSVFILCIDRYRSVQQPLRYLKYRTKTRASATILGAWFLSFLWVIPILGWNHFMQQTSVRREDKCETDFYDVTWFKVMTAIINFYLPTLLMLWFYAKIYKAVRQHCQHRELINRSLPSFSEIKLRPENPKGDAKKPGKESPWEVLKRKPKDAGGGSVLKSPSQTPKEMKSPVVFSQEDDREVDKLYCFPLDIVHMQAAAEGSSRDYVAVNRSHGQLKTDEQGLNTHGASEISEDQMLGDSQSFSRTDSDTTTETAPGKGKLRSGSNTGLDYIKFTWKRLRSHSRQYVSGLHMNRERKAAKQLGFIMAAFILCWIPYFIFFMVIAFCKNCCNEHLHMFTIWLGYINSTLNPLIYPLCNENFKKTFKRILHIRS
Sequence of 5-hydroxytryptamine receptor 5A (P47898 whole entry): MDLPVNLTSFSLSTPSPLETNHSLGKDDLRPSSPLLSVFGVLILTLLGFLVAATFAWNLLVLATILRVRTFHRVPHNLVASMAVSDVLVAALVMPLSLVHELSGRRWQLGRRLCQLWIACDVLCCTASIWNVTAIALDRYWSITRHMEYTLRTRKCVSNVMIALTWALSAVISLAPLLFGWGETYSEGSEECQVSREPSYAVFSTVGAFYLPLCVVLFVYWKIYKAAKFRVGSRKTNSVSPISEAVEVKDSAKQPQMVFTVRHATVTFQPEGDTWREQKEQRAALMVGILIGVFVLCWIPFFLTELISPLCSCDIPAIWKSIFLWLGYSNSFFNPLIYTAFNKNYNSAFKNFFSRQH
Sequence of Sodium-dependent dopamine transporter (Q01959 whole entry): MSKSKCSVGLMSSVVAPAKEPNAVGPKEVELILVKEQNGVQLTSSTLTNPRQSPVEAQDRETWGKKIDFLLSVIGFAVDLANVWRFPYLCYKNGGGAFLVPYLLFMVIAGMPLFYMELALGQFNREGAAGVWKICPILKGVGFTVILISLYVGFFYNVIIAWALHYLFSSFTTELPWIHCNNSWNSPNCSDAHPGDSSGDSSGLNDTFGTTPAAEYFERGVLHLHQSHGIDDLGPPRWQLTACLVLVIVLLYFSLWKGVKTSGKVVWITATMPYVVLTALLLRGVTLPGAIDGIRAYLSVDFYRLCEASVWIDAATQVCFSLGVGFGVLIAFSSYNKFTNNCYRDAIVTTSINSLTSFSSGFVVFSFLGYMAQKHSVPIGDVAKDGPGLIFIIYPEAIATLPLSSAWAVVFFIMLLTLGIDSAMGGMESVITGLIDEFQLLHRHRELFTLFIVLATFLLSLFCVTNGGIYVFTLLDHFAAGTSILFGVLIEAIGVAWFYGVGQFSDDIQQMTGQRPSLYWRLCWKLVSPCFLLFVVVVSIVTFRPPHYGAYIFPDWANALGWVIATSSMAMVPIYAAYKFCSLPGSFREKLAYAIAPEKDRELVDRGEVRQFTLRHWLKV
Sequence of 5-hydroxytryptamine receptor 1B (P28222 whole entry): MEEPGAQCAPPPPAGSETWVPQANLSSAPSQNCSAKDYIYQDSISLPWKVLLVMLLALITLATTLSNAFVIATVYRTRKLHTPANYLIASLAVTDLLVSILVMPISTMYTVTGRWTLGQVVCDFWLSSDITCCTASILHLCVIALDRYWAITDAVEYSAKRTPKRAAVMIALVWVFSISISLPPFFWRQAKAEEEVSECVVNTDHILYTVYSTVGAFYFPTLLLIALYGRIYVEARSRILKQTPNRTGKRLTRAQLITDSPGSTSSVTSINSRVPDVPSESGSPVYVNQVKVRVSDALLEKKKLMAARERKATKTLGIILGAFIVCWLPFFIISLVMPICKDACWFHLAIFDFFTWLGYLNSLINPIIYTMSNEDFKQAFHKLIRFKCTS
Sequence of Sodium-dependent noradrenaline transporter (P23975 whole entry): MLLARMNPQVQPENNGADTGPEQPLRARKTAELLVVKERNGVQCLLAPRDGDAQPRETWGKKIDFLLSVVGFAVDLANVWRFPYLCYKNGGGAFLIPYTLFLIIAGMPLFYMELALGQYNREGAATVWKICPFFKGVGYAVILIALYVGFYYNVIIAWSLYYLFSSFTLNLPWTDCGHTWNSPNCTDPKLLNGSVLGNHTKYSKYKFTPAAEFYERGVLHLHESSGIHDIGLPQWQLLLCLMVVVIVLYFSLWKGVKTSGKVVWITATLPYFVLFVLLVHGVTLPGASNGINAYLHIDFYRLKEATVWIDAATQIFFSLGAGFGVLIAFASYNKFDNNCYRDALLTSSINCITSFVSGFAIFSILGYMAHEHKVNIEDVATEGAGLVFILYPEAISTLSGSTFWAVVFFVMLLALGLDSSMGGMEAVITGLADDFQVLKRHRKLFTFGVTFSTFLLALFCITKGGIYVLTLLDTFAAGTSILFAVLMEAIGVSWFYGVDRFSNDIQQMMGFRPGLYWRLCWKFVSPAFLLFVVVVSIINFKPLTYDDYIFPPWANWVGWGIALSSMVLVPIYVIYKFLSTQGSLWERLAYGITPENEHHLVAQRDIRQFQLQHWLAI

Structure (SMILES)	Ki [1]	Ki [2]	Ki [3]	Ki [4]	Ki [5]	Ki (D(1A) dopamine receptor)	Ki (D(4) dopamine receptor)	Ki (Histamine H2 receptor)	Ki [6]	Ki [7]	Ki [8]	Ki [9]	Ki (Histamine H1 receptor)	Ki [10]
CC(N)Cc1ccc2c(c1)OCO2 (configuration not stated)	> 10 µM	> 10 µM	> 10 µM	> 10 µM	> 10 µM	> 10 µM	> 10 µM	> 10 µM	> 10 µM	> 10 µM	> 10 µM	> 10 µM	–	–
COc1cc(CC(C)N)cc(OC)c1OC (configuration not stated)	2.86 µM	3.37 µM	> 10 µM	> 10 µM	> 10 µM	> 10 µM	> 10 µM	> 10 µM	> 10 µM	> 10 µM	> 10 µM	> 10 µM	> 10 µM	–
CC[C@H]1C[C@@H]2C[C@H]3c4[nH]c5ccc(OC)cc5c4CCN(C2)[C@@H]13	> 10 µM	–	14.1 µM	–	–	> 10 µM	> 10 µM	–	–	1.98 µM	–	–	> 10 µM	22.5 µM
CCc1cc(OC)c(CC(C)N)cc1OC (configuration not stated)	2.8 µM	3.55 µM	0.0273 µM	> 10 µM	> 10 µM	> 10 µM	> 10 µM	> 10 µM	> 10 µM	> 10 µM	> 10 µM	> 10 µM	> 10 µM	–
NCCc1c2c(c(Br)c3c1OCC3)OCC2 [2-(8-Bromo-2,3,6,7-tetrahydro-benzo[1,2-b;4,5-b']difuran-4-yl)-ethylamine]	0.185 µM	0.11 µM	0.0116 µM	> 10 µM	> 10 µM	4.96 µM	> 10 µM	> 10 µM	0.873 µM	> 10 µM	> 10 µM	> 10 µM	5.75 µM	–
CCc1[nH]c2ccc(OC)cc2c1CCN(C)C [2-ethyl-5-methoxy-N,N-dimethyltryptamine]	> 10 µM	–	> 10 µM	–	–	–	> 10 µM	–	> 10 µM	> 10 µM	–	–	> 10 µM	> 10 µM
COc1cc(OC)c(OC)cc1CC(C)N (stereo not drawn) [(+/-)1-Methyl-2-(2,4,5-trimethoxy-phenyl)-ethylamine]	> 10 µM	> 10 µM	0.584 µM	> 10 µM	> 10 µM	> 10 µM	> 10 µM	> 10 µM	> 10 µM	> 10 µM	> 10 µM	> 10 µM	1.41 µM	–
COc1ccc2[nH]c(C)c(CCN(C)C)c2c1 [[2-(5-Methoxy-2-methyl-1H-indol-3-yl)-ethyl]-dimethyl-amine (C2H2O)]	> 10 µM	–	> 10 µM	–	–	–	> 10 µM	–	> 10 µM	> 10 µM	–	–	> 10 µM	> 10 µM
CCN(CC)C(=O)[C@@H]1C=C2c3cccc4[nH]cc(c34)C[C@H]2N(C)C1 [[N-methyl-3H]LSD]	0.0039 µM	–	–	–	8.68 µM	0.177 µM	0.158 µM	–	–	> 10 µM	> 10 µM	> 10 µM	–	–
C[C@@H]1C[C@H](C)N1C(=O)C1C=C2c3cccc4[nH]cc(c34)C[C@H]2N(C)C1 (stereo partly drawn) [cis-2a]	0.0037 µM	0.195 µM	0.0297 µM	0.0164 µM	> 10 µM	0.232 µM	–	–	–	> 10 µM	> 10 µM	> 10 µM	0.501 µM	–
C[C@@H]1C[C@@H](C)N1C(=O)C1C=C2c3cccc4[nH]cc(c34)C[C@H]2N(C)C1 (some centres not stated) [rr-2b]	0.002 µM	0.138 µM	0.69 µM	0.0127 µM	> 10 µM	0.342 µM	–	–	–	> 10 µM	> 10 µM	> 10 µM	1.45 µM	–

— BindingDB's records for PubMed 20126400 (University of Oklahoma, 2010)
